{"source": "patent US6235493A", "about": "“Amino acid substituted-cresyl violet, synthetic fluorogenic substrates for the analysis of agents in individual in vivo cells or tissue” (priority 1998, dated 2001)", "key": {"cathepsin B": {"biological_target": "cathepsin B (Rattus norvegicus, UniProt P00787)", "sequence (P00787 80-333)": "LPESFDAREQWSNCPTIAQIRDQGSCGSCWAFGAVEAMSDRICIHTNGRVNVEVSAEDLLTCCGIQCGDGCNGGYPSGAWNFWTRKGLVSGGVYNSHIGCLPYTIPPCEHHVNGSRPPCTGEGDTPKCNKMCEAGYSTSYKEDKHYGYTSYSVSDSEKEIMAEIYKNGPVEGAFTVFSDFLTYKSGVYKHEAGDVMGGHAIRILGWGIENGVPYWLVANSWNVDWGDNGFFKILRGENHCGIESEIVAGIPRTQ", "experiment": "Cathepsin B activity in living CC531 colon cancer cells (CSLM, (Z-Arg)^2 -cresyl violet)", "type": "cell-based", "procedure": "An established rat colon carcinoma cell line, CC531, was used for all experiments. The parental cell line was obtained from a 1,2-dimethylhydrazine-induced moderately differentiated and weakly immunogenic colon adenocarcinoma in WAG-Rij rats (44). Cells were cultured in vitro at 37° C. as monolayers in Dulbecco's modification of Eagle's medium (ICN Biomedicals, Irvine, Ayrshire, UK) supplemented with 10% (w/v) fetal bovine serum, 2 mM glutamine, 100 IU penicillin/ml and 100 μg streptomycin/ml. Cells were washed in PBS and, after detachment by scraping and centrifugation (250 g, room temperature, 10 min), a single cell suspension at a final concentration of 1×10^6 cancer cells in 50 μl of PBS was obtained with a viability of at least 95% (45,46). Cell suspension were either used for cytochemical purposes or for in vivo administration to induce metastases in the liver.\nCathepsin B activity was detected in real-time in living CC531 cells and freshly prepared living rat hepatocytes after isolation by collagenase perfusion of livers of male mature rats after 24 h of starvation (47). At time point zero, cell preparations were diluted 20-fold in PBS containing either 10 μM (Z-Arg)^2 -cresyl violet (Enzyme Systems Products, Dublin, Calif.) as fluorogenic substrate for cathepsin B (48) or 10 μM substrate and 20 μM FMK (Protek, Dublin, Calif.), as selective cathepsin B inhibitor (40,41). The fluorogenic substrate is not fluorescent but after proteolytic cleavage, liberated cresyl violet is fluorescent. Synthesis of the substrate is described elsewhere in Ref. 48. The substrate was dissolved first in dimethyl formamide (final concentration in the incubation medium was 1% (v/v)). An aliquot of 100 μl of the cell suspensions was brought into a well formed by a stainless steel ring attached to a glass slide (49). Images of cells were captured in real-time with a Leica CSLM fitted to a Leica Fluovert inverted microscopic equipped with a PL APO oil-immersion objective (×63, NA 1.40). Excitation was performed at a wavelength of 560 nm and fluorescence was captured at greater than 580 nm. Excitation with the use of green light is harmless to living cells. The pinhole aperture was set at 100 giving an optimized image (50). With fixed pinhole, filter combination and a laser power setting adjusted to give minimal fading, the photomultiplier gain and photometric offset were optimized. Cells were subjected to optical serial sectioning after each 60 s of incubation up to 300 s. Images in the X-Y plane were recorded with intervals of 0.5 μm in the Z direction. For analysis, each optical section was averaged eight times. Images were recorded in a 512×512 pixel format. The size of each pixel represented 0.015 μm^2 in the object. […]"}, "[1]": {"conditions": "cited from earlier work"}}, "note": "“Also recorded” adds a separate entry of the source. Starred links: 1 amine or outer side, 2 acyl side, 3 side chain; linkers in the order of their positions; H or OH if unused. Non-standard residues stand in square brackets, D forms with d. Residues, ends and D or L forms follow the SMILES beside them. *: point of attachment. hPhe = N[C@@H](CCc1ccccc1)C(=O)O; Morpholide = C1CN(*)CCO1; CO = O=C([*:1])[*:2]; CH2F = FC*"}
{"smiles": "O=C(CF)[C@H](CCc1ccccc1)NC(=O)[C@H](Cc1ccccc1)NC(=O)N1CCOCC1", "note": "[FMK, Mu-Phe-homoPhe-fluoro-methylketone] ({Morpholide-CO}-Phe-[hPhe]-CH2F)", "values": [{"measurement": "inhibition of intracellular cathepsin B activity", "setting": "cathepsin B; CC531 cells, 20 μM FMK", "result": "not intracellular cathepsin B activity; also recorded: Activity was present intracellularly"}, {"measurement": "inhibition of plasma membrane-bound (extracellular) cathepsin B activity", "setting": "cathepsin B; CC531 cells, 20 μM FMK, 10 μM (Z-Arg)^2 -cresyl violet, 5 min, room temperature", "result": "inhibited only extracellular; also recorded: inhibited the plasma membrane-bound activity completely; also recorded: Plasma membrane-bound activity was inhibited"}, {"measurement": "uptake by living cells", "setting": "cathepsin B; inferred from lack of inhibition of intracellular activity", "result": "had not been taken up by the living cells"}, {"measurement": "water solubility", "setting": "[1]", "result": "water-soluble"}]}
